Some test systems named below: U251 CNS; KM12 colon; RXF 393 renal; SNB-19 CNS; ACHN renal; HCC-2998 colon; HCT-116 colon; NCI-H460 lung; A498 renal; M14 melanoma.
Holding throughout (test): NCI tumour cell line growth inhibition, 48 h

Molecules are shown by their SMILES.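 Exposure lasted 48 hours, with cells grown in 96-well plates and compounds tested at five concentrations. GI50 = concentration required for 50% inhibition of growth. Definition used: TGI = concentration required for complete inhibition of growth.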

For the compound `COc1c2ccoc2c(/C=C/C=O)c2oc(-c3ccccc3)cc(=O)c12`, the GI50 in the assay with U251 CNS was 3.06 µM; in the assay with KM12 colon, 16.5 µM; in the assay with RXF 393 renal, 4.26 µM; in the assay on SNB-19 CNS it was 12 µM; in the assay with ACHN renal, 20.8 µM; in the assay on HCC-2998 colon it was 16.1 µM. The GI50 was 1.7 µM in the assay on HCT-116 colon, 11.3 µM with NCI-H460 lung, 7.44 µM with A498 renal and 3.32 µM in the assay with M14 melanoma. For the same compound, the TGI is 12.9 µM in the assay with U251 CNS; 43.5 µM with KM12 colon; 14.7 µM in the assay on RXF 393 renal; over 100 µM in the assay with SNB-19 CNS; over 100 µM in the assay with ACHN renal; 42 µM in the assay with HCC-2998 colon. Also, the TGI is 4.73 µM in the assay on HCT-116 colon, 61.4 µM in the assay on NCI-H460 lung, 40.7 µM in the assay on A498 renal and over 100 µM with M14 melanoma.
In the case of `Cc1ccc(-c2nnc(-c3ccc4ccccc4c3)o2)cc1`, the TGI was over 100 µM in the assay with U251 CNS; over 100 µM in the assay on KM12 colon; 55.1 µM in the assay on RXF 393 renal; over 100 µM in the assay on SNB-19 CNS; over 100 µM in the assay with ACHN renal; over 100 µM with HCC-2998 colon. Moreover, the TGI with HCT-116 colon is over 100 µM; in the assay on NCI-H460 lung, over 100 µM; in the assay on A498 renal, over 100 µM; in the assay on M14 melanoma, over 93.2 µM.
